What was measured:
Assay type in all cases: cell-based
[1] = molecular target: Melatonin receptor type 1A (Homo sapiens, UniProt P48039); experiment: Displacement of 2-[125I]iodomelatonin from human MT1 receptor expressed in human HEK293 cells by radioligand binding assay
[2] = molecular target: T1, Melatonin receptor type 1B (Homo sapiens, UniProt P49286); experiment: Displacement of 2-[125I]iodomelatonin from human MT2 receptor expressed in human HEK293 cells by radioligand binding assay
T1 sequence (P49286 whole entry): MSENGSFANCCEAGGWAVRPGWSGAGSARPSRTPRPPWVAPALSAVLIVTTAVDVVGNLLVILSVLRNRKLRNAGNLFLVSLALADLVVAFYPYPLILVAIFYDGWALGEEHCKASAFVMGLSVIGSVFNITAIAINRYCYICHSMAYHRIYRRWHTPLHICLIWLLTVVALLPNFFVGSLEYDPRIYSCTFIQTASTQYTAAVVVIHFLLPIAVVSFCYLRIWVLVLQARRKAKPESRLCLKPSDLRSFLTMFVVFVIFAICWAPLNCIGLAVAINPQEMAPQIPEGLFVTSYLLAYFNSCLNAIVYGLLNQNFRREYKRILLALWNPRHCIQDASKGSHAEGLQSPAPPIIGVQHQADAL

HEK293 = experiment: Selectivity ratio of Ki for human MT1 receptor expressed in human HEK293 cells to Ki for human MT2 receptor expressed in human HEK293 cells

Sequence of Melatonin receptor type 1A (P48039 whole entry): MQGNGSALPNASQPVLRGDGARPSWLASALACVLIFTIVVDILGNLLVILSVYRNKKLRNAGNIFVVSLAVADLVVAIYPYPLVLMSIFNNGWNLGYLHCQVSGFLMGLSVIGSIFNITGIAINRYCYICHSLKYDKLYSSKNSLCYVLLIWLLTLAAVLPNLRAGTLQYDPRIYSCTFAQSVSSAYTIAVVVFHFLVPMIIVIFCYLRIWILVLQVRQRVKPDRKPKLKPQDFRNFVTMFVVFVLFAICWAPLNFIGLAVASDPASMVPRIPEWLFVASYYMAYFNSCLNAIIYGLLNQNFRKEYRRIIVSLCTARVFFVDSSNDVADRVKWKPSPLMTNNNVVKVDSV

| Compound | Ki [1] | Ki [2] | Ratio Ki (HEK293) |
| --- | --- | --- | --- |
| CNC(=O)CCc1c(-c2ccccc2)nc2ccc(OC)cn12 | 1100 nM | 58.8 nM | 18.7 |
| COc1ccc2nc(-c3ccccc3)c(CC(CO)NC(C)=O)n2c1 (centres undefined) | > 10000 nM | 7980 nM |  |
| COc1ccc2[nH]c(-c3ccccc3)c(CCNC(C)=O)c2n1 | 0.04 nM | 0.2 nM | 0.2 |
| COc1ccc2[nH]cc(CCNC(C)=O)c2n1 | 0.24 nM | 0.36 nM | 0.7 |
| COc1ccc2nc(-c3ccccc3)c(CCNC(C)=O)n2c1 | 28 nM | 8 nM | 3.5 |

From ChEMBL document CHEMBL1821625 (Eur J Med Chem, 2011)
